From patent US20080096967A1, “Formulations for Injection of Catecholic Butanes, Including Ndga Compounds, Into Animals” (priority 2005, published 2008)

Tests used:
[1] = Solubility of M4N in water-insoluble lipids (visual inspection); format: physicochemical
Method: A 10 mL solution of M4N at a concentration of about 50 mg/mL in sesame oil was made as follows. About 10 mL of sesame oil were added to a glass beaker containing a stir bar. The beaker was placed on a magnetic plate and the stir bar was set to stir at medium speed. About 500 mg of M4N were slowly added to the sesame oil in the center of the beaker with the aid of a spatula to prevent M4N from sticking to the beaker wall. The M4N/sesame oil mixture was stirred for about 2 hr or until all M4N had dissolved or was uniformly suspended without any clump being present. The M4N/sesame oil mixture was heated at about 60° C. for about 30 min. (or longer if a larger volume of solution was desired, for example, 1 hr at 60° C. for 500 mL of the M4N/sesame oil mixture), or longer as need to ensure complete dissolution of M4N. […] If crystals formed, the M4N/sesame oil solution could be heated again at 60° C. for about 1 hr, with stirring, on a hot magnetic plate until all M4N was dissolved back in solution. The final M4N/sesame oil solution was stored at room temperature and was kept protected from light.
A 10 mL solution of M4N at a concentration of about 60 mg/mL in 85% sesame oil and 15% Tween® 20 was made as follows. About 8.5 mL of sesame oil were added to a glass beaker containing a stir bar. The beaker was placed on a magnetic plate and the stir bar was set to stir at medium speed. About 1.5 mL of Tween® 20 was slowly added to the center of the beaker. About 600 mg of M4N were slowly added to the sesame oil/Tween® 20 mixture in the center of the beaker with the aid of a spatula to prevent M4N from sticking to the beaker wall. The M4N/sesame oil/Tween® 20 mixture was stirred for about 2 hr or until all M4N had dissolved or was uniformly suspended without any clumps being present. The M4N/sesame oil/Tween® 20 mixture was heated at about 60° C. for about 30 min. (or longer if a larger volume of solution was desired, for example, 1 hr at 60° C. for 500 mL of the M4N/sesame oil/Tween® 20 mixture), or longer as need to ensure complete dissolution of M4N. […]

[2] = M4N stability in 11-14 mg/mL PEG300/HP-β-CD solutions at room temperature (RP-HPLC); format: physicochemical; details: for Observed M4N: room temperature
Method: To support manufacturing specifications, this study examined the 24-hour room temperature stability of combinations of PEG300/HP-β-CD at varying M4N target concentrations. Stock samples of M4N stocks were prepared in 100% PEG 300 at drug concentrations of 33-56 mg/mL at 60° C. as follows.
M4N bulk drug was solubilized to concentrations of 33, 44, 48, 52, 55 and 56 mg/mL (w/w) in PEG 300 using the procedure set forth in Examples 13 and 16, following incubation of at least 2 hours at 60° C. Vigorous vortexing and mixing were necessary for complete solubilization of M4N above 44 mg/mL. The M4N stock solutions were filtered through a 0.45 μm SFCA filter and used within 30 minutes of preparation. Separately, a solution of 40% (w/v) HP-β-CD was prepared in sterile WFI and filtered. Combinations of the 40% HP-β-CD stock and the M4N/PEG 300 stocks were combined in 1.5 mL polypropylene microtubes.
The requisite amount of M4N stock was added to 40% HP-β-CD to yield the final concentrations of drug and excipients listed in Table 28. Samples were gently rotated (˜12 rpm) at room temperature. At 2 and 24 hours of incubation, samples were centrifuged 2 minutes at 13,000 rpm and 50 μL aliquots were removed for RP-HPLC analysis.

healthy male subjects = assay: Human Phase 0 microdose study: tolerability; format: in vivo; details: oral and intravenous administrations, 100 μg
Method: This study was designed to assess the absorption of M4N when administered to humans as a sub-therapeutic dose either as a single oral dose under fed and fasted conditions or a single intravenous dose (Regimens A-C, respectively, in Table 24). The study was a three-way crossover study design in a target population of healthy male subjects and consisted of three study periods of approximately 35 hours duration, each separated by a minimum period of at least 7 days between dosing. During the course of each study period, pharmacokinetic blood samples were taken at specified time points after dosing and urine was collected over pre-defined time intervals. The subjects were able to leave the clinical unit after the completion of study specific procedures at 24 hours post-dose.

[3] = 40 mg/mL M4N/PEG 300 stability: visual appearance; format: physicochemical
Method: The stability of 40 mg/mL M4N dissolved in 100% PEG 300 was evaluated up to 24 hours incubation at 30° C., 45° C. and 60° C. A stock 40 mg/mL M4N in PEG 300 was prepared at 60° C., following the procedure set forth in Example 17. Subsequently, aliquots were removed and incubated at the appropriate temperature. Samples were rotated at 450 rpm during the entire course of incubation. Visual observations and RP-HPLC data were collected throughout. […] The formation of crystals coincided with a loss of soluble M4N (Table 30). The 40 mg/mL M4N/PEG 300 samples incubated at 45° C. and 60° C. were stable after 24 hours incubation as assessed by visual observations and RP-HPLC analysis (Tables 29 and 30).

## COc1ccc(C[C@@H](C)[C@@H](C)Cc2ccc(OC)c(OC)c2)cc1OC [Formulation M4N, meso-1,4-bis(3,4-dimethoxyphenyl)-2,3-dimethylbutane]
[1]; 89% sesame oil and 11% Tween® 20, M4N 29 mg/mL, dissolved at 60° C.
  stable at room temperature: more than 7 days
[1]; Sesame Oil and Tween ® 20: 10% Oil emulsion in 90% saline, M4N 2.9 mg/mL
  Stability Time at Room Temperature: <3 days
[1]; sesame oil, M4N 50 mg/mL
  stable at room temperature: less than 1 day
[2]; 11 mg/mL M4N, 20% PEG300, 32% HP-β-CD, t = 2 hours
  Observed M4N: 11.5 mg/mL
[2]; 11 mg/mL M4N, 20% PEG300, 32% HP-β-CD, t = 24 hours
  Observed M4N: 11.4 mg/mL
[2]; 11 mg/mL M4N, 25% PEG300, 30% HP-β-CD, t = 2 hours
  Observed M4N: 11.3 mg/mL
[2]; 11 mg/mL M4N, 25% PEG300, 30% HP-β-CD, t = 24 hours
  Observed M4N: 11.3 mg/mL
[2]; 11 mg/mL M4N, 33% PEG300, 27% HP-β-CD, t = 2 hours
  Observed M4N: 11.4 mg/mL
[2]; 11 mg/mL M4N, 33% PEG300, 27% HP-β-CD, t = 24 hours
  Observed M4N: 11.3 mg/mL
[2]; 12 mg/mL M4N, 25% PEG300, 30% HP-β-CD, t = 2 hours
  Observed M4N: 11.8 mg/mL
[2]; 12 mg/mL M4N, 25% PEG300, 30% HP-β-CD, t = 24 hours
  Observed M4N: 11.6 mg/mL
[2]; 13 mg/mL M4N, 25% PEG300, 30% HP-β-CD, t = 2 hours
  Observed M4N: 12.7 mg/mL
[2]; 13 mg/mL M4N, 25% PEG300, 30% HP-β-CD, t = 24 hours
  Observed M4N: 12.7 mg/mL
[2]; 14 mg/mL M4N, 25% PEG300, 30% HP-β-CD, t = 2 hours
  Observed M4N: 13.5 mg/mL
[2]; 14 mg/mL M4N, 25% PEG300, 30% HP-β-CD, t = 24 hours
  Observed M4N: 13.5 mg/mL
[2]; 11-14 mg/mL M4N, 25% PEG 300 and 30% HP-β-CD, 24 hours at room temperature
  stability: stable
Healthy male subjects
  adverse events: no serious or severe adverse events
  tolerability of study formulations: well tolerated
[3]; 40 mg/mL M4N/PEG 300, 6 hours at 30° C.
  visual observation: tiny crystals were observed
[3]; 40 mg/mL M4N/PEG 300, 24 hours at 45° C. and 60° C.
  stability by visual observations and RP-HPLC: stable
